Measurements published in patent publication US12479840B2, “HMG-CoA reductase degradation inducing compound” (Uppthera, priority 2020, dated 2025).

What follows are compounds tested against T1, HMG-CoA reductase (Homo sapiens, UniProt P04035) (assay: HMG-CoA reductase (HMGCR) degradation in HepG2 cells by western blotting). Settings: treated for 18 hours, ratio of HMG-CoA reductase to GAPDH, read-out: DC50.
T1 construct: endogenous in cells; host or cells: HepG2 (Korea Cell Line Bank)
T1 sequence (P04035 1-888): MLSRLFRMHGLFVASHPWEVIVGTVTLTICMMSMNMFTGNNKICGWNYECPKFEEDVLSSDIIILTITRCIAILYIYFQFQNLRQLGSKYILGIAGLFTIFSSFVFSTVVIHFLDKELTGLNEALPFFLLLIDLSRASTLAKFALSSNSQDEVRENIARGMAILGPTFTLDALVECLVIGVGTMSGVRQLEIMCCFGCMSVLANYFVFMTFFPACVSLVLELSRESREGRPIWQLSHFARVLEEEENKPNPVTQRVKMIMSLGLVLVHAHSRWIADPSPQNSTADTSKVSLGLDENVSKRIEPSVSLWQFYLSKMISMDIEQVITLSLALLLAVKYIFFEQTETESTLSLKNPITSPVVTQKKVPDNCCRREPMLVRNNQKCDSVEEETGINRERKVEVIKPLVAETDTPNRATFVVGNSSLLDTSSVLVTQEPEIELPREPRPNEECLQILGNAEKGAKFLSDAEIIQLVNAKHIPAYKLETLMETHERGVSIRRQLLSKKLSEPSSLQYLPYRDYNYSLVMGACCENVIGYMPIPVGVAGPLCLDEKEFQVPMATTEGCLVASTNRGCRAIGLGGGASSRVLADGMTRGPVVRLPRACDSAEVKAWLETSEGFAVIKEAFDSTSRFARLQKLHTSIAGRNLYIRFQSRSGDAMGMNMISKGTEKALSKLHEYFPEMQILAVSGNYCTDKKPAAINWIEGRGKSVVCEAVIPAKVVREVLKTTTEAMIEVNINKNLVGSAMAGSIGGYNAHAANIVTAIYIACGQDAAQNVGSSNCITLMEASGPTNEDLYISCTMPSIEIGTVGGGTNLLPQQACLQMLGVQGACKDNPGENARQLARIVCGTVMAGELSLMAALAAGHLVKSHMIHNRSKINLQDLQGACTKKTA
Format: cell-based
Procedure, shortened: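 HepG2 cells (passage P105–P110) treated 18 hours with compounds in 10-point three-fold dilutions from 3 μM. RIPA lysates (15 μg protein, BCA-quantified) run on SDS-PAGE and immunoblotted for HMGCR (1:500) with GAPDH (1:20000) as loading control, primary antibodies 16 hours at 4° C.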

Row | DC50 [nM] | Compound
1 | < 50 | C[C@H]1C=C2C=C[C@H](C)[C@H](CC[C@@H]3C[C@@H](O)CC(=O)O3)[C@H]2[C@@H](OC(=O)NCCOCCOCCOCCOCCOCCNc2cccc3c2C(=O)N(C2CCC(=O)NC2=O)C3=O)C1 (stereo partly drawn) [Compound 43, (1S,3R,7S,8S,8aR)-8-(2-((2R,4R)-4-hydroxy-6-oxotetrahydro-2H-pyran-2-yl)ethyl)-3,7-dimethyl-1,2,3,7,8,8a-hexahydronaphthalen-1-yl (17-((2-(2,6-dioxopiperidin-3-yl)-1,3-dioxoisoindolin-4-yl)amino)-3,6,9,12,15-pentaoxaheptadecyl)carbamate]
2 | < 50 | C[C@H]1C=C2C=C[C@H](C)[C@H](CC[C@@H]3C[C@@H](O)CC(=O)O3)[C@H]2[C@@H](OC(=O)NCCOCCOCCNc2cccc3c2C(=O)N(C2CCC(=O)NC2=O)C3=O)C1 (stereo partly drawn) [Compound 40, (1S,3R,7S,8S,8aR)-8-(2-((2R,4R)-4-hydroxy-6-oxotetrahydro-2H-pyran-2-yl)ethyl)-3,7-dimethyl-1,2,3,7,8,8a-hexahydronaphthalen-1-yl (2-(2-(2-((2-(2,6-dioxopiperidin-3-yl)-1,3-dioxoisoindolin-4-yl)amino)ethoxy)ethoxy)ethyl)carbamate]
3 | < 50 | C[C@H]1C=C2C=C[C@H](C)[C@H](CC[C@@H]3C[C@@H](O)CC(=O)O3)[C@H]2[C@@H](OC(=O)NCCOCCNC(=O)COc2cccc3c2C(=O)N(C2CCC(=O)NC2=O)C3=O)C1 (stereo partly drawn) [Compound 129, (1S,3R,7S,8S,8aR)-8-(2-((2R,4R)-4-hydroxy-6-oxotetrahydro-2H-pyran-2-yl)ethyl)-3,7-dimethyl-1,2,3,7,8,8a-hexahydronaphthalen-1-yl (2-(2-(2-((2-(2,6-dioxopiperidin-3-yl)-1,3-dioxoisoindolin-4-yl)oxy)acetamido)ethoxy)ethyl)carbamate]
4 | 50 to 500 | C[C@H]1C=C2C=C[C@H](C)[C@H](CC[C@@H]3C[C@@H](O)CC(=O)O3)[C@H]2[C@@H](OC(=O)NCCOCCOCCNC(=O)COc2cccc3c2C(=O)N(C2CCC(=O)NC2=O)C3=O)C1 (stereo partly drawn) [Compound 139, (1S,3R,7S,8S,8aR)-8-(2-((2R,4R)-4-hydroxy-6-oxotetrahydro-2H-pyran-2-yl)ethyl)-3,7-dimethyl-1,2,3,7,8,8a-hexahydronaphthalen-1-yl (2-(2-(2-(2-((2-(2,6-dioxopiperidin-3-yl)-1,3-dioxoisoindolin-4-yl)oxy)acetamido)ethoxy)ethoxy)ethyl)carbamate]

More lines, now with the values behind:

Row | Compound | DC50 [nM]
5 | C[C@H]1C=C2C=C[C@H](C)[C@H](CC[C@@H]3C[C@@H](O[Si](C)(C)C(C)(C)C)CC(=O)O3)[C@H]2[C@@H](OC(=O)NCCOCCOCCCNc2cccc3c2C(=O)N(C2CCC(=O)NC2=O)C3=O)C1 (stereo partly drawn) [Compound 92, (1S,3R,7S,8S,8aR)-8-(2-((2R,4R)-4-((tert-butyldimethylsilyl)oxy)-6-oxotetrahydro-2H-pyran-2-yl)ethyl)-3,7-dimethyl-1,2,3,7,8,8a-hexahydronaphthalen-1-yl (2-(2-(3-((2-(2,6-dioxopiperidin-3-yl)-1,3-dioxoisoindolin-4-yl)amino)propoxy)ethoxy)ethyl)carbamate] | < 50
6 | C[C@H]1C=C2C=C[C@H](C)[C@H](CC[C@@H]3C[C@@H](O[Si](C)(C)C(C)(C)C)CC(=O)O3)[C@H]2[C@@H](OC(=O)NCCOCCOCCNc2cccc3c2CN(C2CCC(=O)NC2=O)C3=O)C1 (stereo partly drawn) [Compound 65, (1S,3R,7S,8S,8aR)-8-(2-((2R,4R)-4-((tert-butyldimethylsilyl)oxy)-6-oxotetrahydro-2H-pyran-2-yl)ethyl)-3,7-dimethyl-1,2,3,7,8,8a-hexahydronaphthalen-1-yl (2-(2-(2-((2-(2,6-dioxopiperidin-3-yl)-1-oxoisoindolin-4-yl)amino)ethoxy)ethoxy)ethyl)carbamate] | < 50
7 | C[C@H]1C=C2C=C[C@H](C)[C@H](CC[C@@H]3C[C@@H](O[Si](C)(C)C(C)(C)C)CC(=O)O3)[C@H]2[C@@H](OC(=O)NCCCOCCCCNc2cccc3c2C(=O)N(C2CCC(=O)NC2=O)C3=O)C1 (stereo partly drawn) [Compound 120, (1S,3R,7S,8S,8aR)-8-(2-((2R,4R)-4-((tert-butyldimethylsilyl)oxy)-6-oxotetrahydro-2H-pyran-2-yl)ethyl)-3,7-dimethyl-1,2,3,7,8,8a-hexahydronaphthalen-1-yl (3-(4-((2-(2,6-dioxopiperidin-3-yl)-1,3-dioxoisoindolin-4-yl)amino)butoxy)propyl)carbamate] | 50 to 500
8 | Cc1ncsc1-c1ccc(CNC(=O)[C@@H]2C[C@@H](O)CN2C(=O)[C@@H](NC(=O)COCCOCCOCCOCCNC(=O)O[C@H]2C[C@@H](C)C=C3C=C[C@H](C)[C@H](CC[C@@H]4C[C@@H](O)CC(=O)O4)[C@H]32)C(C)(C)C)cc1 [Compound 17, (1S,3R,7S,8S,8aR)-8-(2-((2R,4R)-4-hydroxy-6-oxotetrahydro-2H-pyran-2-yl)ethyl)-3,7-dimethyl-1,2,3,7,8,8a-hexahydronaphthalen-1-yl ((S)-16-((2S,4R)-4-hydroxy-2-((4-(4-methylthiazol-5-yl)benzyl)carbamoyl)pyrrolidine-1-carbonyl)-17,17-dimethyl-14-oxo-3,6,9,12-tetraoxa-15-azaoctadecyl)carbamate] | < 50
9 | C[C@H]1C=C2C=C[C@H](C)[C@H](CC[C@@H]3C[C@@H](O[Si](C)(C)C(C)(C)C)CC(=O)O3)[C@H]2[C@@H](OC(=O)NCCOCCOCCNc2cccc3nnn(C4CCC(=O)NC4=O)c(=O)c23)C1 (stereo partly drawn) [Compound 155, (1S,3R,7S,8S,8aR)-8-(2-((2R,4R)-4-((tert-butyldimethylsilyl)oxy)-6-oxotetrahydro-2H-pyran-2-yl)ethyl)-3,7-dimethyl-1,2,3,7,8,8a-hexahydronaphthalen-1-yl (2-(2-(2-((3-(2,6-dioxopiperidin-3-yl)-4-oxo-3,4-dihydrobenzo[d][1,2,3]triazin-5-yl)amino)ethoxy)ethoxy)ethyl)carbamate] | < 50
10 | C[C@H]1C=C2C=C[C@H](C)[C@H](CC[C@@H]3C[C@@H](O)CC(=O)O3)[C@H]2[C@@H](OC(=O)NCCOCCOCCNc2cccc3c2CN(C2CCC(=O)NC2=O)C3=O)C1 (stereo partly drawn) [Compound 66, (1S,3R,7S,8S,8aR)-8-(2-((2R,4R)-4-hydroxy-6-oxotetrahydro-2H-pyran-2-yl)ethyl)-3,7-dimethyl-1,2,3,7,8,8a-hexahydronaphthalen-1-yl (2-(2-(2-((2-(2,6-dioxopiperidin-3-yl)-1-oxoisoindolin-4-yl)amino)ethoxy)ethoxy)ethyl)carbamate] | < 50
11 | Cc1ncsc1-c1ccc(CNC(=O)[C@@H]2C[C@@H](O)CN2C(=O)[C@@H](NC(=O)C2(F)CC2)C(C)(C)C)c(OCCOCCOCCNC(=O)O[C@H]2C[C@@H](C)C=C3C=C[C@H](C)[C@H](CC[C@@H]4C[C@@H](O)CC(=O)O4)[C@H]32)c1 [Compound 24, (1S,3R,7S,8S,8aR)-8-(2-((2R,4R)-4-hydroxy-6-oxotetrahydro-2H-pyran-2-yl)ethyl)-3,7-dimethyl-1,2,3,7,8,8a-hexahydronaphthalen-1-yl (2-(2-(2-(2-(((2S,4R)-1-((S)-2-(1-fluorocyclopropane-1-carboxamido)-3,3-dimethylbutanoyl)-4-hydroxypyrrolidine-2-carboxamido)methyl)-5-(4-methylthiazol-5-yl)phenoxy)ethoxy)ethoxy)ethyl)carbamate] | < 50
12 | CN[C@@H](C)C(=O)N[C@H](C(=O)N1CCC[C@@H]1c1nc(C(=O)c2cccc(OCCOCCOCCNC(=O)O[C@H]3C[C@@H](C)C=C4C=C[C@H](C)[C@H](CC[C@@H]5C[C@@H](O[Si](C)(C)C(C)(C)C)CC(=O)O5)[C@H]43)c2)cs1)C1CCCCC1 [Compound 35, (1S,3R,7S,8S,8aR)-8-(2-((2R,4R)-4-((tert-butyldimethylsilyl)oxy)-6-oxotetrahydro-2H-pyran-2-yl)ethyl)-3,7-dimethyl-1,2,3,7,8,8a-hexahydronaphthalen-1-yl (2-(2-(2-(3-(2-((R)-1-((S)-2-cyclohexyl-2-((S)-2-(methylamino)propanamido)acetyl)pyrrolidin-2-yl)thiazole-4-carbonyl)phenoxy)ethoxy)ethoxy)ethyl)carbamate] | > 500
